The source of these data is patent publication US20230227406A1, “MODULATORS OF E3 LIGASES” (Rekindle Therapeutics Inc., priority 2020, published 2023).

pIC50: −log10 of the molar value.

One test deals with T1, WWP1 (Homo sapiens, UniProt Q9H0M0).
T1 construct: purchased Ubiquigent 63-0034-025/30033/D
Description: WWP1 MALDI-MS ubiquitin depletion assay (auto-ubiquitination). Format: biochemical. The note with it: 30 min pre-incubation, 90 minutes at 37° C. On the procedure:
Modulators designed in these ways were tested for HECT domain E3 ligase activity in a MALDI TOF assay of auto-ubiquitination (De Cesare et al, Cell Chem. Biol, 2018, 25, 1117)
UBE1 (E-305 Boston Biochem), UBE2D1 (E2-616 Boston Biochem), WWP1 (Ubiquigent #63-0034-025/30033/D), ubiquitin variants (Boston Biochem; ubiquitin: U-100H; WT-His6-Ub: U-530; K27R-His6-Ub:UM-HK27R; K27O-His6-Ub: UM-HK27O), alpha-cyano-4-hydroxycinnamic acid (CHCA), ATP, trifluoroacetic acid (Millipore Sigma, St. Louis, Mo.), 384-well round-bottom polypropylene microplates (781280, Greiner, Stonehouse, UK), 384-well Anchorchip MALDI targets and Peptide Calibration Standard II (Bruker Daltonics, Billerica, Mass.).
Protocol: The WWP1 ubiquitin depletion assay consists of recombinant UBE1 (5 nM), UBE2D1 conjugating enzyme (60 nM) and WWP1 ligase (50 nM) in a 10 mM HEPES pH 8.0 containing 0.1 mg/mL BSA, 10 mM MgCl2, 1 mM ATP and 1500 nM ubiquitin. Screening was performed by dispensing 3.5 μL of an enzyme solution containing UBE1 (10 nM), UBE2D1 (120 nM), WWP1 (100 nM), ubiquitin ([…]) to a 384-well round bottom polypropylene plates followed by incubation at 37° C. for 30 min. Reactions were initiated by the addition of 3.5 μL of an ATP solution (2000 nM) then incubated at 37° C. for 90 minutes before being quenched by the addition of 5 μL of a 50 mM EDTA solution containing 750 nM of a ubiquitin labelled with a histidine expression tag (m/z=9460.0 Da).
For detection of ubiquitin and the ubiquitin-6His internal standards, 50 nL of quenched reaction was dispensed onto a 384-well Anchorchip MALDI target plate (Bruker) pre-coated with a uniform layer of CHCA crystals immediately followed by 200 nL of a 3 mg/mL CHCA matrix solution (6 mg of CHCA dissolved in 0.7 mL of 100% ethanol and 1.3 mL of 0.31% aqueous TFA) using a TTP Labtech Mosquito liquid handler. Spectra for all reactions were acquired on a Bruker AutoFlex II in positive linear TOF mode from 1000 laser shots with ion suppression below 4000 Da. Spectra were analyzed for response using a centroid peak-fitting algorithm to quantify ubiquitin (m/z=8564.0 Da) and ubiquitin-6His (m/z=9460.0 Da) followed taking the ratio of intensities of ubiquitin and the ubiquitin-6His internal standard.
For compound screening, 140 nL of diluted compound in 100% DMSO was added to the WWP1 enzyme solution and pre-incubated for 30 minutes prior to reaction initiation.

The next test concerns PD-L1. Briefly: Western blot of PD-L1 in Hs578T cells. Format: cell-based, human. The conditions noted are these: 48 hours, indicated concentrations of compound. On the procedure:
Hs578T cells (human triple negative breast cancer) were treated with the indicated concentration of COMPOUND 1 for 48 hours prior to harvesting. The “0” concentration is DMSO only (0.5%, same as was used for compound doses). […] Analysis occurred via western blot using the indicated antibodies. Quantification by densitometry of the bands from the western blot are presented for PD-L1/Vinculin (loading control) in the absence of interferon gamma, and glycosylated/non-glycosylated PD-L1 in the presence of interferon gamma.
The data presented here are consistent with the previous replicate in Hs578T cells, and the observation is preserved in another TNBC cell line, BT-20. COMPOUND 1 increases PD-L1 levels and the glycosylated PD-L1/non-glycosylated PD-L1 ratio. Methods are the same as the previous replicate, using the indicated doses.
Hs578T cells (human triple negative breast cancer) were treated with the indicated concentration of COMPOUND 6 for 48 hours before harvesting. The “0” concentration is DMSO only (0.5%, same as was used for compound doses). […] Analysis occurred via western blot using the indicated antibodies. PD-L1 protein levels were reduced relative to the vinculin loading control upon compound treatment. This effect is observed in the presence and absence of interferon gamma (IFN, 25 ng/mL in cell culture media during the drug treatment).
Hs578T cells (human triple negative breast cancer) were treated with the indicated concentration of COMPOUND 7 for 48 hours prior to harvesting. The “0” concentration is DMSO only (0.5%, same as was used for compound doses). […] Analysis occurred via western blot using the indicated antibodies. PD-L1 protein levels were reduced relative to the vinculin loading control upon 319-02 treatment.
The data presented here are consistent with the previous replicate in Hs578T cells. COMPOUND 7 reduces the PD-L1/vinculin loading control ratio. Methods are the same as the previous replicate, using the indicated doses.
Hs578T cells (human triple negative breast cancer) were treated with the indicated concentration of COMPOUND 8 for 48 hours and then harvested. The “0” concentration is DMSO only (0.5%, same as was used for compound doses). […] Analysis occurred via western blot using the indicated antibodies.
PD-L1-APC (BD Biosciences) and a matched isotype control were used to visualize PD-L1 cell surface expression by flow cytometry (1:250 dilution). As shown by western blot, the knockdown of WWP1 yielded increased PD-L1 protein levels, including an increase in the glycosylated band.
Total RNA was isolated using an RNeasy kit from Qiagen.
Background: Immunoblotting shows a protein as a band on a membrane.

In another test the test system is DU-145 cells. Briefly: Cellular proliferation assay (MTS) in DU-145 cells. It counts as cell-based. The note with it: Homo sapiens, 72 hours of incubation, read-out: IC50 values for selected compounds in DU-145 cells. On the procedure:
DU-145 cells were trypsinized, counted via Trypan blue method and resuspended in DMEM complete medium (10% FBS with Pen-strep antibiotics) as described in Lieu et al, Mol Cel Endorinol, 87:19-28, 1992. Cells were seeded at a density of 100 cells per well in 1001 volume of 96-well cell culture plate and were incubated overnight at 37° C. in 5% CO2 incubator. The next day, cells were given fresh media and the test compounds were added in different concentrations. After 72 hours of incubation, MTS reagent (procured from Promega) was added to the cells and they were incubated for an additional 2 hours. Finally, the plates read in the absorbance mode at 490 nm using an ELISA plate reader (Perkin Elmer Victor X3 plate reader). The % growth values were calculated as [(T−T0)/(C−T0)]×100, where T0 is the OD of cells at the time of compound addition, C is the vehicle control, T is the OD of the test concentrations at 72 hours. Percentage inhibition values were calculated using 100−([(T−T0)/(C−T0)]×100). IC50 values were calculated in graph pad prism software using dose response curve nonlinear regression method.

T1 sequence (Q9H0M0 whole entry): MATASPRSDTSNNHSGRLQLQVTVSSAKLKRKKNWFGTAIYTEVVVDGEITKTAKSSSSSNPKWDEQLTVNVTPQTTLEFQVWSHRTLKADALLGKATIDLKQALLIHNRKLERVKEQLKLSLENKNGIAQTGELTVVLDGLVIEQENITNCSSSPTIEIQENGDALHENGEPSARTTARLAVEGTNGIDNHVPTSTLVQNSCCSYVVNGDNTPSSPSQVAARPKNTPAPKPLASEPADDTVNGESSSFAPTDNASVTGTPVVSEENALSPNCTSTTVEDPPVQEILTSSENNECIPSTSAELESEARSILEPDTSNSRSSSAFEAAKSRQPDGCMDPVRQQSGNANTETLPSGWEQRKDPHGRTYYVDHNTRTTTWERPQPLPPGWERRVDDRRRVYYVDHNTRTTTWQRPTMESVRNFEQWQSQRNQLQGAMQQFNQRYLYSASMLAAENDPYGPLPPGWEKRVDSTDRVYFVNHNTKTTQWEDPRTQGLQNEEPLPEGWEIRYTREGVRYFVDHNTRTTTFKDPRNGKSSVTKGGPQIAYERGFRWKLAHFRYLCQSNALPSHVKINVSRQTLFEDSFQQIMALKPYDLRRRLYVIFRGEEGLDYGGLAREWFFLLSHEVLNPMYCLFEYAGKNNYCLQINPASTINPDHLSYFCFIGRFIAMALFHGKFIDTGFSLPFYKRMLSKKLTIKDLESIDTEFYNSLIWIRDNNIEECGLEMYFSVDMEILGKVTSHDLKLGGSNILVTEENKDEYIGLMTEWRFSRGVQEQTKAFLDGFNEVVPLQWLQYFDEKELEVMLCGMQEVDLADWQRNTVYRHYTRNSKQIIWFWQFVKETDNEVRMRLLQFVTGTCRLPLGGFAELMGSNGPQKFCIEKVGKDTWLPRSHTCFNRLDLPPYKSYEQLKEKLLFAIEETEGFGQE

The pIC50 is −log10 of the IC50, conventionally taken in molar units. `C#Cc1ccc2c(C=O)cn(-c3ccccc3)c2c1` [Compound 1, 6-ethynyl-1-phenyl-1H-indole-3-carbaldehyde]: the pIC50 against WWP1 is 5.30. Also, in the test with PD-L1, the “PD-L1 glycosylation (glycosylated/non-glycosylated PD-L1 ratio)” value is on record as “increases” and the “PD-L1 levels (relative to vinculin loading control)” value is recorded as “increases”. Besides, the pIC50 with DU-145 cells is 4.87.
On to `C#CCNC(=O)c1ccc2c(Cc3c[nH]c4ccccc34)c[nH]c2c1` [Compound 6, 3-((1H-indol-3-yl)methyl)-N-(prop-2-yn-1-yl)-1H-indole-6-carboxamide], for which the pIC50 is 4.49 against WWP1 and 5.09 in the test with DU-145 cells. Further, the “PD-L1 levels (relative to vinculin loading control)” value with PD-L1 is “reduced”.
As to `C#CCN(CCO)C(=O)c1ccc2c(Cc3c[nH]c4ccccc34)c[nH]c2c1` [Compound 7, 3-((1H-indol-3-yl)methyl)-N-(2-hydroxyethyl)-N-(prop-2-yn-1-yl)-1H-indole-6-carboxamide], the pIC50 on WWP1 is 4.82; in the test with DU-145 cells it was 5.30. For the same compound, the “PD-L1 levels (relative to vinculin loading control)” value in the test with PD-L1 is “reduces”.
